Experimental findings from publication PMC6010091, “Inhibition of the β-carbonic anhydrase from the dandruff-producing fungus Malassezia globosa with monothiocarbamates” (Journal of Enzyme Inhibition and Medicinal Chemistry, 2017) are described below.

As a reminder, the Ki is the equilibrium dissociation constant of an inhibitor or competing ligand from its target. Read a high Ki as a looser hold on the target.

For the experiment, the target named is T1, MgCA (Malassezia globosa, UniProt A8Q1N3).
T1 construct: gene MGL_1814; recombinant, purified; dimer in the homology model; Zn ligands C47, H103, C106
T1 sequence (A8Q1N3 1-241): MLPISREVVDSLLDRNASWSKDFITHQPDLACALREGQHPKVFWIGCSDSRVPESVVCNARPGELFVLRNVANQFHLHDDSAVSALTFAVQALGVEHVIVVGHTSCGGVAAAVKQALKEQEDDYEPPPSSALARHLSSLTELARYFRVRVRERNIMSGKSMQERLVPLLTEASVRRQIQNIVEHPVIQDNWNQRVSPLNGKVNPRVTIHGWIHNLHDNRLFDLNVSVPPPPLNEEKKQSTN
Briefly: stopped-flow CO2 hydration assay, Cheng-Prusoff. The class given is biochemical.

As for `CCCN(CCC)C(=O)S` [compound 4, 4], the Ki amounted to 1.85 µM.

`CCCCN(CCCC)C(=O)S` [compound 5, 5] had a Ki of 7.52 µM.

`CC(C)CN(CC(C)C)C(=O)S` [compound 6, 6]: the affinity, expressed as Ki, was 8.61 µM.

Compound `CCCCN(CC)C(=O)S` [compound 7, 7] displayed a Ki of 5.26 µM.

With `CN(Cc1ccccc1)C(=O)S` [compound 9, 9], the affinity, expressed as Ki, was 7.61 µM.

For the compound `O=C(S)N1CCOCC1` [compound 10, 10], the Ki was 7.65 µM.

For the compound `O=C(S)N1CCNCC1` [compound 11, 11], the affinity, expressed as Ki, was 7.41 µM.

As for `O=C(S)N1CCN(c2ccc(F)cc2)CC1` [compound 12, 12], the Ki was 8.33 µM.

Consider `O=C(S)N1CCN(c2ccc(C(F)(F)F)cc2)CC1` [compound 13, 13], for which the Ki was found to be 4.22 µM.

For `O=C(S)N1CCN(c2cccc(Cl)c2)CC1` [compound 14, 14], the Ki was found to be 15.9 µM.

Turning to `O=C(CN1CCN(C(=O)S)CC1)NC1CCCCC1` [compound 15, 15], the Ki came out at 6.13 µM.

Take `S=C(S)SCc1ccccc1` [compound 16, 16]: affinity was put at a Ki of 8.12 µM.

`S=C(S)OCCc1ccccc1` [compound 17, 17] yielded a Ki of 16.2 µM.
